Experimental findings from US11236129B2, “IL-17A binding peptides and medical uses thereof” (Dompe' Farmaceutici S.P.A., priority 2018, dated 2022) are described below.

Each structure is given as a SMILES string. Residues, ends and D or L forms follow the SMILES beside them.

The target in the experiment is IL-17RA/IL17RC dimerization induced by IL-17A (Homo sapiens, UniProt Q16552). The experiment can be described thus: IL-17RA/IL17RC dimerization assay in response to IL-17A (PathHunter Cytokine Receptor Assay). It counts as cell-based. The following applies: IL-17A at EC80; read-out: IC50 in IL-17RA/IL7RC dimerization assay. On the procedure: The peptides of Table 7 were tested for their ability to inhibit the binding of IL-17A to its receptor and the subsequent interaction of IL-17RA and IL17RC.
Interleukin receptor RA and RC dimerization assay (DiscoverX) was used to measure the interaction of the receptor chains IL-17RA and IL17RC upon activation by IL-17A in the absence or presence of the peptides of Table 7.
In the PathHunter® Cytokine Receptor Assay, one cytokine receptor chain is tagged with a small peptide epitope ProLink (PK) and the other chain is tagged with Enzyme Acceptor (EA). Ligand binding induces dimerization of the two receptors, facilitating complementation of PK and EA fragments. This interaction generates an active unit of b-galactosidase, which is detected using a chemiluminescent substrate. PathHunter cell lines were expanded from freezer stocks according to standard procedures. Cells were seeded in a total volume of 20 μL into white walled, 384-well microplates and incubated for the appropriate time prior to testing. For agonist activity inhibition, cells were incubated with sample to induce response. Intermediate dilution of sample stocks was performed to generate 5× sample in assay buffer. 5 μL of 5× sample was added to cells and incubated at 37° C. or room temperature for 60 minutes. Vehicle concentration was 1%. 5 μL of 6×EC80 agonist (IL-17A) in assay buffer was added to the cells and incubated at 37° C. for 6 to 16 hours depending on the assay. 1. […] For some assays, activity was detected using a high sensitivity detection reagent (PathHunter Flash Kit) to improve assay performance. In these assays, an equal volume of detection reagent (25 or 30 uL) was added to the wells, followed by a one hour incubation at room temperature. Microplates were read following signal generation with a PerkinElmer Envision™ instrument for chemiluminescent signal detection. Compound activity was analyzed using CBIS data analysis suite (ChemInnovation, CA). % Inhibition=100%×(1−(mean RLU of test sample−mean RLU of vehicle control)/(mean RLU of EC80 control−mean RLU of vehicle control)).

Sequence of IL-17RA/IL17RC dimerization induced by IL-17A (Q16552 24-155): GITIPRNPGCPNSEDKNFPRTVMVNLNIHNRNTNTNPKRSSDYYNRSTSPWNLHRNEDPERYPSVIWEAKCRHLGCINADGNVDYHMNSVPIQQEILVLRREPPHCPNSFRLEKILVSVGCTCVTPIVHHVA

Consider `CC[C@H](C)[C@H](NC(=O)[C@H](Cc1c[nH]c2ccccc12)NC(=O)[C@H](CCC(=O)O)NC(=O)[C@H](Cc1ccc(O)cc1)NC(=O)[C@H](CC(C)C)NC(=O)[C@H](CC(=O)O)NC(=O)[C@H](C)NC(=O)[C@@H]1CCCN1C(=O)[C@@H](NC(=O)[C@@H](NC(=O)[C@@H](NC(=O)[C@H](CCSC)NC(=O)[C@@H](NC(=O)[C@@H](C)O[C@H]1[C@H](O[C@@H]2O[C@H](CO)[C@@H](O)[C@H](O)[C@H]2NC(C)=O)[C@@H](CO)OC(O)[C@@H]1NC(C)=O)[C@@H](C)CC)C(C)C)[C@@H](C)O)[C@@H](C)CC)C(=O)N[C@@H](CCC(=O)O)C(=O)N[C@@H](CCC(=O)O)C(N)=O` (some centres unmarked) [BIO-3], for which the IC50 was below 1000 nM.
In the case of `CCCCCCCCCC(=O)N[C@H](C(=O)N[C@@H](CCSC)C(=O)N[C@H](C(=O)N[C@H](C(=O)N[C@H](C(=O)N1CCC[C@H]1C(=O)N[C@@H](C)C(=O)N[C@@H](CC(=O)O)C(=O)N[C@@H](CC(C)C)C(=O)N[C@@H](Cc1ccc(O)cc1)C(=O)N[C@@H](CCC(=O)O)C(=O)N[C@@H](Cc1c[nH]c2ccccc12)C(=O)N[C@H](C(=O)N[C@@H](CCC(=O)O)C(=O)N[C@@H](CCC(=O)O)C(N)=O)[C@@H](C)CC)[C@@H](C)CC)[C@@H](C)O)C(C)C)[C@@H](C)CC` [BIO-4] it was below 1000 nM.
In the case of `CC[C@H](C)[C@H](NC(=O)[C@@H](NC(=O)[C@@H](NC(=O)[C@H](Cc1c[nH]cn1)NC(=O)[C@@H](NC(C)=O)C(C)C)C(C)C)[C@@H](C)O)C(=O)N1CCC[C@H]1C(=O)N[C@@H](C)C(=O)N[C@@H](CC(N)=O)C(=O)N[C@@H](CC(C)C)C(=O)N[C@@H](Cc1c[nH]c2ccccc12)C(=O)N[C@@H](CCC(=O)O)C(=O)N[C@@H](Cc1c[nH]c2ccccc12)C(=O)N[C@H](C(=O)N[C@@H](CCCNC(=N)N)C(=O)N[C@@H](CCCNC(=N)N)C(N)=O)C(C)C` [SEQ ID NO: 116] (Ac-VHVTIPANLWEWVRR-NH2), the IC50 is below 500 nM.
In the case of `CC[C@H](C)[C@H](NC(=O)[C@@H](NC(=O)[C@@H](NC(=O)[C@H](Cc1c[nH]cn1)NC(=O)[C@@H](NC(C)=O)C(C)C)C(C)C)[C@@H](C)O)C(=O)N1CCC[C@H]1C(=O)N[C@@H](C)C(=O)N[C@@H](CC(=O)O)C(=O)N[C@@H](Cc1ccccc1)C(=O)N[C@@H](Cc1c[nH]c2ccccc12)C(=O)N[C@@H](CCC(=O)O)C(=O)N[C@@H](Cc1c[nH]c2ccccc12)C(=O)N[C@H](C(=O)N[C@@H](CCCNC(=N)N)C(=O)N[C@@H](CCCNC(=N)N)C(N)=O)C(C)C` [SEQ ID NO: 117] (Ac-VHVTIPADFWEWVRR-NH2) it was below 500 nM; in that of `CC[C@H](C)[C@H](NC(=O)[C@@H](NC(=O)[C@@H](NC(=O)[C@H](Cc1c[nH]cn1)NC(=O)[C@@H](NC(C)=O)C(C)C)C(C)C)[C@@H](C)O)C(=O)N1CCC[C@H]1C(=O)N[C@@H](C)C(=O)N[C@@H](CC(=O)O)C(=O)N[C@@H](CC(C)C)C(=O)N[C@@H](Cc1ccc(O)cc1)C(=O)N[C@@H](CCC(=O)O)C(=O)N[C@@H](Cc1c[nH]c2ccccc12)C(=O)N[C@H](C(=O)N[C@@H](CCCNC(=N)N)C(=O)N[C@@H](CCCNC(=N)N)C(N)=O)C(C)C` [SEQ ID NO: 118] (Ac-VHVTIPADLYEWVRR-NH2), below 500 nM.
The same measure for `CC[C@H](C)[C@H](NC(=O)[C@@H](NC(=O)[C@@H](NC(=O)[C@H](Cc1c[nH]cn1)NC(=O)[C@@H](NC(C)=O)C(C)C)C(C)C)[C@@H](C)O)C(=O)N1CCC[C@H]1C(=O)N[C@@H](C)C(=O)N[C@@H](CC(=O)O)C(=O)N[C@@H](CC(C)C)C(=O)N[C@@H](Cc1c[nH]c2ccccc12)C(=O)N[C@@H](CC(N)=O)C(=O)N[C@@H](Cc1c[nH]c2ccccc12)C(=O)N[C@H](C(=O)N[C@@H](CCCNC(=N)N)C(=O)N[C@@H](CCCNC(=N)N)C(N)=O)C(C)C` [SEQ ID NO: 119] (Ac-VHVTIPADLWNWVRR-NH2): below 500 nM; for `CC[C@H](C)[C@H](NC(=O)[C@@H](NC(=O)[C@@H](NC(=O)[C@H](Cc1c[nH]cn1)NC(=O)[C@@H](NC(C)=O)C(C)C)C(C)C)[C@@H](C)O)C(=O)N1CCC[C@H]1C(=O)N[C@@H](C)C(=O)N[C@@H](CC(=O)O)C(=O)N[C@@H](CC(C)C)C(=O)N[C@@H](Cc1c[nH]c2ccccc12)C(=O)N[C@@H](CCC(=O)O)C(=O)N[C@@H](Cc1ccccc1)C(=O)N[C@H](C(=O)N[C@@H](CCCNC(=N)N)C(=O)N[C@@H](CCCNC(=N)N)C(N)=O)C(C)C` [SEQ ID NO: 120] (Ac-VHVTIPADLWEFVRR-NH2): below 500 nM; for `CC[C@H](C)[C@H](NC(=O)[C@H](Cc1ccc(O)cc1)NC(=O)[C@@H](NC(=O)[C@H](Cc1c[nH]cn1)NC(=O)[C@@H](NC(C)=O)C(C)C)C(C)C)C(=O)N1CCC[C@H]1C(=O)N[C@@H](C)C(=O)N[C@@H](CCC(=O)O)C(=O)N[C@@H](CC(C)C)C(=O)N[C@@H](Cc1c[nH]c2ccccc12)C(=O)N[C@@H](CCC(=O)O)C(=O)N[C@@H](Cc1c[nH]c2ccccc12)C(=O)N[C@H](C(=O)N[C@@H](CCCNC(=N)N)C(=O)N[C@@H](CCCNC(=N)N)C(N)=O)C(C)C` [SEQ ID NO: 122] (Ac-VHVYIPAELWEWVRR-NH2): below 500 nM.
The same measure for `CC[C@H](C)[C@H](NC(=O)[C@@H](NC(=O)[C@@H](NC(=O)[C@H](Cc1c[nH]cn1)NC(=O)[C@@H](NC(C)=O)C(C)C)C(C)C)[C@@H](C)O)C(=O)N1CCC[C@H]1C(=O)N[C@@H](C)C(=O)N[C@@H](CCC(=O)O)C(=O)N[C@@H](Cc1c[nH]c2ccccc12)C(=O)N[C@@H](Cc1c[nH]c2ccccc12)C(=O)N[C@@H](CCC(=O)O)C(=O)N[C@@H](Cc1c[nH]c2ccccc12)C(=O)N[C@H](C(=O)N[C@@H](CCCNC(=N)N)C(=O)N[C@@H](CCCNC(=N)N)C(N)=O)C(C)C` [SEQ ID NO: 123] (Ac-VHVTIPAEWWEWVRR-NH2): below 500 nM; for `CC(=O)N[C@H](C(=O)N[C@@H](Cc1c[nH]cn1)C(=O)N[C@@H](Cc1ccccc1)C(=O)N[C@H](C(=O)N[C@@H](Cc1ccccc1)C(=O)N1CCC[C@H]1C(=O)N[C@@H](CCC(N)=O)C(=O)N[C@@H](CC(=O)O)C(=O)N[C@@H](CC(C)C)C(=O)N[C@@H](Cc1c[nH]c2ccccc12)C(=O)N[C@@H](CCC(=O)O)C(=O)N[C@@H](Cc1c[nH]c2ccccc12)C(=O)N[C@H](C(=O)N[C@@H](CCCNC(=N)N)C(=O)N[C@@H](CCCNC(=N)N)C(N)=O)C(C)C)[C@@H](C)O)C(C)C` [SEQ ID NO: 124] (Ac-VHFTFPQDLWEWVRR-NH2): below 500 nM; for `CC(=O)N[C@H](C(=O)N[C@@H](Cc1c[nH]cn1)C(=O)N[C@@H](Cc1ccccc1)C(=O)N[C@H](C(=O)N[C@@H](Cc1ccccc1)C(=O)N1CCC[C@H]1C(=O)N[C@@H](CCC(N)=O)C(=O)N[C@@H](CC(=O)O)C(=O)N[C@@H](Cc1ccccc1)C(=O)N[C@@H](Cc1c[nH]c2ccccc12)C(=O)N[C@@H](CCC(=O)O)C(=O)N[C@@H](Cc1c[nH]c2ccccc12)C(=O)N[C@H](C(=O)N[C@@H](CCCNC(=N)N)C(=O)N[C@@H](CCCNC(=N)N)C(N)=O)C(C)C)[C@@H](C)O)C(C)C` [SEQ ID NO: 125] (Ac-VHFTFPQDFWEWVRR-NH2): below 500 nM.
For `CC[C@H](C)[C@H](NC(=O)[C@@H](NC(=O)[C@H](Cc1ccccc1)NC(=O)[C@H](Cc1c[nH]cn1)NC(=O)[C@@H](NC(C)=O)C(C)C)[C@@H](C)O)C(=O)N1CCC[C@H]1C(=O)N[C@@H](CCC(N)=O)C(=O)N[C@@H](CC(=O)O)C(=O)N[C@@H](CC(C)C)C(=O)N[C@@H](Cc1ccc(O)cc1)C(=O)N[C@@H](CCC(=O)O)C(=O)N[C@@H](Cc1c[nH]c2ccccc12)C(=O)N[C@H](C(=O)N[C@@H](CCCNC(=N)N)C(=O)N[C@@H](CCCNC(=N)N)C(N)=O)C(C)C` [SEQ ID NO: 126] (Ac-VHFTIPQDLYEWVRR-NH2), the IC50 was below 500 nM.
The same measure for `CC(=O)N[C@H](C(=O)N[C@@H](Cc1c[nH]cn1)C(=O)N[C@@H](Cc1ccccc1)C(=O)N[C@H](C(=O)N[C@@H](Cc1ccccc1)C(=O)N1CCC[C@H]1C(=O)N[C@@H](CCC(N)=O)C(=O)N[C@@H](CC(=O)O)C(=O)N[C@@H](CC(C)C)C(=O)N[C@@H](Cc1c[nH]c2ccccc12)C(=O)N[C@@H](CC(N)=O)C(=O)N[C@@H](Cc1c[nH]c2ccccc12)C(=O)N[C@H](C(=O)N[C@@H](CCCNC(=N)N)C(=O)N[C@@H](CCCNC(=N)N)C(N)=O)C(C)C)[C@@H](C)O)C(C)C` [SEQ ID NO: 127] (Ac-VHFTFPQDLWNWVRR-NH2): below 500 nM; for `CC(=O)N[C@H](C(=O)N[C@@H](Cc1c[nH]cn1)C(=O)N[C@@H](Cc1ccccc1)C(=O)N[C@H](C(=O)N[C@@H](Cc1ccccc1)C(=O)N1CCC[C@H]1C(=O)N[C@@H](CCC(N)=O)C(=O)N[C@@H](CC(=O)O)C(=O)N[C@@H](CC(C)C)C(=O)N[C@@H](Cc1c[nH]c2ccccc12)C(=O)N[C@@H](CCC(=O)O)C(=O)N[C@@H](Cc1ccccc1)C(=O)N[C@H](C(=O)N[C@@H](CCCNC(=N)N)C(=O)N[C@@H](CCCNC(=N)N)C(N)=O)C(C)C)[C@@H](C)O)C(C)C` [SEQ ID NO: 128] (Ac-VHFTFPQDLWEFVRR-NH2): below 500 nM.
